According to patent publication US11345681B1, “Inhibitors of fibroblast growth factor receptor kinases” (Kinnate Biopharma Inc., priority 2020, dated 2022):
pIC50: −log10 of the molar value. One block for each compound: values may come before it.

Target: Wild type FGFR2 (Homo sapiens (Human), UniProt P21802)
Assay: FGFR2 kinase assay (fluorescence-based microfluidic mobility shift assay)
Assay type: biochemical
Conditions: wild type FGFR2 0.06 nM, 100 μM ATP, 80 minutes at room temperature

Wild type FGFR2, sequence (P21802 22-821): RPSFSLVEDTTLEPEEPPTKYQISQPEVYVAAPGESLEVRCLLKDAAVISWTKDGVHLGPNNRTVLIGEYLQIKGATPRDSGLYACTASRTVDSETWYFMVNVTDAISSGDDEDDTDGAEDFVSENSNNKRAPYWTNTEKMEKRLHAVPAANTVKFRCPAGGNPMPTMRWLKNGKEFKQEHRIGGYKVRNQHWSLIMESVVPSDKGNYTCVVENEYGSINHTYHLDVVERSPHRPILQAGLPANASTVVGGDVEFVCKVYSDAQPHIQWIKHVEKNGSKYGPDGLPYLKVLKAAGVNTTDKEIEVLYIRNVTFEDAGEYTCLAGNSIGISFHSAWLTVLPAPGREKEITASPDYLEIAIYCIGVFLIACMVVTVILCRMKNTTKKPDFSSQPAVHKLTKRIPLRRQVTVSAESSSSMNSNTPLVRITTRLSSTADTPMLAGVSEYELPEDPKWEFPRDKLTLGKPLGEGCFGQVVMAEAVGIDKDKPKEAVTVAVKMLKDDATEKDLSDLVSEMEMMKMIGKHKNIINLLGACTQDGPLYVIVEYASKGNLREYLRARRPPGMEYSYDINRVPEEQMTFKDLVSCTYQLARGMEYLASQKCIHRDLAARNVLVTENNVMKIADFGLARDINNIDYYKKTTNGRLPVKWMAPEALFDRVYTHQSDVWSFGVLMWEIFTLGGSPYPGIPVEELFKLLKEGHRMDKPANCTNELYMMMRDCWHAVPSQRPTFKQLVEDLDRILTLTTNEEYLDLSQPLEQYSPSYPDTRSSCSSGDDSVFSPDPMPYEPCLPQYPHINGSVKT

Compound: C=CC(=O)N1C[C@@H](n2nc(C#Cc3cn4ccccc4n3)c(C(N)=O)c2NC)C[C@@H]1COC [Example 104, 3-(2-[Imidazo[1,2-a]pyridin-2-yl]ethynyl)-1-[(3S,5R)-5-(methoxymethyl)-1-(prop-2-enoyl)pyrrolidin-3-yl]-5-(methylamino)pyrazole-4-carboxamide]
- pIC50 (given as numeric bound): < 6.30

Compound: C=CC(=O)N1C[C@@H](n2nc(C#Cc3cc4ncn(CC)c4cc3Cl)c(C(N)=O)c2NC)C[C@@H]1COC [Example 89, 3-[2-(6-Chloro-1-ethyl-1,3-benzodiazol-5-yl)ethynyl]-1-[(3S,5R)-5-(methoxymethyl)-1-(prop-2-enoyl)pyrrolidin-3-yl]-5-(methylamino)pyrazole-4-carboxamide]
- pIC50 (class symbols): ≥ 7.00

Compound: C=CC(=O)N1C[C@@H](n2nc(C#Cc3ccc4ncn(C)c4c3F)c(C(N)=O)c2NC)C[C@@H]1COC [Example 41, 3-[2-(4-fluoro-^-1-methyl-1,3-benzodiazol-5-yl)ethynyl]-1-[(3S,5R)-5-(methoxymethyl)-1-(prop-2-enoyl)pyrrolidin-3-yl]-(methylamino)pyrazole-4-carboxamide]
- pIC50 (class symbols): 6.00 to 7.00

Compound: C=CC(=O)N1C[C@@H](n2nc(C#Cc3cc4ncn(C5CC5)c4cc3F)c(C(N)=O)c2NC)C[C@H]1C [Example 164, 1-((3S,5R)-1-Acryloyl-5-methylpyrrolidin-3-yl)-3-((1-cyclopropyl-6-fluoro-1H-benzo[d]imidazol-5-yl)ethynyl)-5-(methylamino)-1H-pyrazole-4-carboxamide]
- pIC50 (class symbols): ≥ 7.00

Compound: C=CC(=O)N1C[C@@H](n2nc(C#Cc3ccc4ocnc4c3)c(C(N)=O)c2NC)C[C@@H]1COC [Example 108, 3-[2-(1,3-Benzoxazol-5-yl)ethynyl]-1-[(3S,5R)-5-(methoxymethyl)-1-(prop-2-enoyl)pyrrolidin-3-yl]-5-(methylamino)pyrazole-4-carboxamide]
- pIC50 (class symbols): ≥ 7.00

Compound: C=CC(=O)N1C[C@@H](n2nc(C#Cc3cc4ncc(C)cc4cc3C)c(C(N)=O)c2NC)C[C@@H]1COC [Example 265, 3-[2-(3,6-Dimethylquinolin-7-yl)ethynyl]-1-[(3S,5R)-5-(methoxymethyl)-1-(prop-2-enoyl)pyrrolidin-3-yl]-5-(methylamino)pyrazole-4-carboxamide]
- pIC50 (class symbols): ≥ 7.00

The next lines start with the values.

- pIC50 (class symbols): ≥ 7.00
Compound: C=C(F)C(=O)N1CC(n2nc(C#Cc3cc4ncn(C5CC5)c4cc3F)c(C(N)=O)c2NC)C1 [Example 172, 3-((1-Cyclopropyl-6-fluoro-1H-benzo[d]imidazol-5-yl)ethynyl)-1-(1-(2-fluoroacryloyl)azetidin-3-yl)-5-(methylamino)-1H-pyrazole-4-carboxamide]

- pIC50 (class symbols): ≥ 7.00
Compound: C=CC(=O)N1C[C@@H](n2nc(C#Cc3cc4nc(C)n(C)c4c(F)c3F)c(C(N)=O)c2NC)C[C@@H]1COC [Example 127, 3-[2-(6,7-Difluoro-1,2-dimethyl-1,3-benzodiazol-5-yl)ethynyl]-1-[(3S,5R)-5-(methoxymethyl)-1-(prop-2-enoyl)pyrrolidin-3-yl]-5-(methylamino) pyrazole-4-carboxamide]

- pIC50 (class symbols): ≥ 7.00
Compound: C=CC(=O)N1C[C@@H](n2nc(C#Cc3ccc4c(ncn4CC)c3F)c(C(N)=O)c2NC)C[C@@H]1COC [Example 68, 1-((3S,5R)-1-Acryloyl-5-(methoxymethyl)pyrrolidin-3-yl)-3-((1-ethyl-4-fluoro-1H-benzo[d]imidazol-5-yl)ethynyl)-5-(methylamino)-1H-pyrazole-4-carboxamide]

- pIC50 (class symbols): ≥ 7.00
Compound: C=CC(=O)N1C[C@@H](n2nc(C#Cc3cc4ncc(C5CC5)n4cc3F)c(C(N)=O)c2NC)C[C@@H]1COC [Example 283, 3-(2-{3-Cyclopropyl-6-fluoroimidazo[1,2-a]pyridin-7-yl}ethynyl)-1-[(3S,5R)-5-(methoxymethyl)-1-(prop-2-enoyl)pyrrolidin-3-yl]-5-(methylamino)pyrazole-4-carboxamide]
